Results: patent publication US5086066A, “Method of providing anxiolytic and antipsychotic treatment with substituted benzamides” (priority 1988, dated 1992)

Tests used:
rats = experiment: hyperactivity induced by injection of amphetamine into the nucleus accumbens (motor activity), antipsychotic activity; assay type: in vivo
Protocol: Tests were conducted to measure the antipsychotic activity of the compounds of the invention. In particular, the hyperactivity induced in rats by the perfusion of amphetamine into the nucleus accumbens was evaluated. This test consists in determining the effect of the compounds of the invention on hyperactivity produced in rats by the injection of amphetamine into the nucleus accumbens. Hyperactivity was induced by injecting 20 μg of amphetamine bilaterally into the nucleus accumbens. The compounds of the invention were administered subcutaneously at doses of 1 mg/kg and 10 mg/kg, 40 minutes before the injection of amphetamine. For each dose of test product, a group of 5 animals was used. A group treated only with amphetamine and a reference group which received only an inert vehicle comprised 10 animals.
Immediately after the injection of amphetamine, the rats were placed in individual cages equipped with photoelectric cells. Motor activity, characterized by the number of shifts from place to place in these cages, was determined by the number of interruptions of a light beam striking these cells. The measurements were made during the 80 minutes following the injection of amphetamine. The results, expressed as the number of shifts from place to place per 10-minute period, are collated in Table 2.

mice = experiment: two compartment (dark and light) box test, anxiolytic activity; assay type: in vivo; settings: for % time in black compartment / Black compartment rearings/5 min / Black compartment transits/5 min / Delay white → black / White compartment rearings/5 min / White compartment transits/5 min: 40 min after administration, S.E.M. <12.6%, n = 5
Protocol: The two compartment box test was conducted in mice to evaluate anxiolytic activity. This test is based on a natural aversion of mice to light. The apparatus used is a box containing two compartments, one of which is dark (labeled "black compartment" in the Table 1) and the other illuminated (labeled "white compartment" in Table 1). The apparatus is designed to allow the animal to choose between staying in either of the two compartments. Under normal conditions, the mice avoid light and usually remain in the dark compartment. Under the influence of an anxiolytic agent, however, exploration of the illustrated compartment predominates. The test consists of placing each mouse in the center of the illuminated compartment and observing the animal's behavior by video system for 5 minutes. The number of exploratory rearings and the number of displacements (the crossing of lines traced on the floor of each compartment constitute "passages") are then recorded for each compartment. An anxiolytic effect induced by a drug, such as diazepam, is characterized by an increase in the number of exploratory rearings and in the number of passages into the illuminated compartment. The compounds of the invention were injected subcutaneously at variable doses, each dose being administered to a group of 5 mice.

[1] = acute toxicity, median lethal dose (LD50) intravenously; settings: mouse, in vivo, iv
Excerpt: The compounds of the invention were also subjected to a study of acute toxicity when injected intravenously in male mice and female mice, which enabled the median lethal doses (LD50) to be determined.

With `CCN(CC)CCNC(=O)c1cc(Cl)c(NC2=NC(C)CN2)cc1OC` (stereo not drawn) [Compound 1, N-[2-(diethylamino)ethyl]-2-methoxy-4-[(4,5-dihydro-4-methyl-1H-imidazol-2-yl)amino]-5-chlorobenzamide] the Motor activity (rats; 1 mg/kg s.c. 40 min before amphetamine 20 μg, time 10 min) was 49 ± 9 shifts from place to place/10 minutes, the Motor activity (rats; 1 mg/kg s.c. 40 min before amphetamine 20 μg, time 20 min) was 35 ± 3 shifts from place to place/10 minutes and the Motor activity (rats; 1 mg/kg s.c. 40 min before amphetamine 20 μg, time 30 min) was 45 ± 8 shifts from place to place/10 minutes. For the same compound, the Motor activity (rats; 1 mg/kg s.c. 40 min before amphetamine 20 μg, time 40 min) was 40 ± 8 shifts from place to place/10 minutes, the Motor activity (rats; 1 mg/kg s.c. 40 min before amphetamine 20 μg, time 50 min) was 11 ± 3 shifts from place to place/10 minutes and the Motor activity (rats; 1 mg/kg s.c. 40 min before amphetamine 20 μg, time 60 min) was 12 ± 2 shifts from place to place/10 minutes. The Motor activity (rats; 1 mg/kg s.c. 40 min before amphetamine 20 μg, time 70 min) was 8 ± 1 shifts from place to place/10 minutes, the Motor activity (rats; 10 mg/kg s.c. 40 min before amphetamine 20 μg, time 10 min) was 27 ± 4 shifts from place to place/10 minutes and the Motor activity (rats; 10 mg/kg s.c. 40 min before amphetamine 20 μg, time 20 min) was 27 ± 6 shifts from place to place/10 minutes. The Motor activity (rats; 10 mg/kg s.c. 40 min before amphetamine 20 μg, time 30 min) was 13 ± 3 shifts from place to place/10 minutes, the Motor activity (rats; 10 mg/kg s.c. 40 min before amphetamine 20 μg, time 40 min) was 11 ± 2 shifts from place to place/10 minutes and the Motor activity (rats; 10 mg/kg s.c. 40 min before amphetamine 20 μg, time 50 min) was 8 ± 2 shifts from place to place/10 minutes. The “% time in black compartment” value (mice; 0.01 mg/kg s.c.) was 36%, the “Black compartment rearings/5 min” value (mice; 0.01 mg/kg s.c.) was 16 rearings/5 min and the “Black compartment transits/5 min” value (mice; 0.01 mg/kg s.c.) was 37 transits/5 min. For the same compound, the “Delay white → black” value (mice; 0.01 mg/kg s.c.) was 19 s, the “White compartment rearings/5 min” value (mice; 0.01 mg/kg s.c.) was 57 rearings/5 min and the “White compartment transits/5 min” value (mice; 0.01 mg/kg s.c.) was 77 transits/5 min. For the same compound, the “% time in black compartment” value (mice; 0.1 mg/kg s.c.) was 27%, the “Black compartment rearings/5 min” value (mice; 0.1 mg/kg s.c.) was 14 rearings/5 min and the “Black compartment transits/5 min” value (mice; 0.1 mg/kg s.c.) was 23 transits/5 min. The “Delay white → black” value (mice; 0.1 mg/kg s.c.) was 22 s, the “White compartment rearings/5 min” value (mice; 0.1 mg/kg s.c.) was 73 rearings/5 min and the “White compartment transits/5 min” value (mice; 0.1 mg/kg s.c.) was 79 transits/5 min. For the same compound, the minimal effective dose (mice; Mus musculus, sc, 40 min, subcutaneous, mice, read-out: dose at and above which anxiolytic activity is manifested) was ≥ 0.01 mg/kg, the LD50 ([1]; female mice) was 24 mg/kg and the LD50 ([1]; male mice) was 19.5 mg/kg.
